The target in one data set is T1, aorta of rat (Rattus norvegicus, UniProt P23944).
T1 sequence (P23944 1-561): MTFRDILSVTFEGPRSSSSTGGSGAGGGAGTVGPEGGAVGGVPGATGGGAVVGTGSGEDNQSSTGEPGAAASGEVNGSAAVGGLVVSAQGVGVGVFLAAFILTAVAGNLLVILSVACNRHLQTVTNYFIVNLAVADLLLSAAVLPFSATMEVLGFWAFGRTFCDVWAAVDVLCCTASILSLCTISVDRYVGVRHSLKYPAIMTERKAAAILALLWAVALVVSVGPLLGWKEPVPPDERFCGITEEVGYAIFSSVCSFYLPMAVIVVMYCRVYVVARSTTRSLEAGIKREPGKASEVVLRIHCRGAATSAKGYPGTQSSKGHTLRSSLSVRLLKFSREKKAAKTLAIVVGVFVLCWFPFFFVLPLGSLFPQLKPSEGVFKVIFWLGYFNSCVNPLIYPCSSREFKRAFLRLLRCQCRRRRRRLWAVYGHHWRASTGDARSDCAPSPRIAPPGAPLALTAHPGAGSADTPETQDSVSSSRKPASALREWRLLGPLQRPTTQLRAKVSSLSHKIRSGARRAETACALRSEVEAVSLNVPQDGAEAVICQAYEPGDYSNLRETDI
In words: cell-based.

The target of data set [1] is T2, right artrium of guinea pig (Cavia porcellus, UniProt H0W3H1).
T2 construct: beat rate of a right artrium of guinea pig; from tissue; host or cells: guinea pig right atrium
T2 sequence (H0W3H1 1-470): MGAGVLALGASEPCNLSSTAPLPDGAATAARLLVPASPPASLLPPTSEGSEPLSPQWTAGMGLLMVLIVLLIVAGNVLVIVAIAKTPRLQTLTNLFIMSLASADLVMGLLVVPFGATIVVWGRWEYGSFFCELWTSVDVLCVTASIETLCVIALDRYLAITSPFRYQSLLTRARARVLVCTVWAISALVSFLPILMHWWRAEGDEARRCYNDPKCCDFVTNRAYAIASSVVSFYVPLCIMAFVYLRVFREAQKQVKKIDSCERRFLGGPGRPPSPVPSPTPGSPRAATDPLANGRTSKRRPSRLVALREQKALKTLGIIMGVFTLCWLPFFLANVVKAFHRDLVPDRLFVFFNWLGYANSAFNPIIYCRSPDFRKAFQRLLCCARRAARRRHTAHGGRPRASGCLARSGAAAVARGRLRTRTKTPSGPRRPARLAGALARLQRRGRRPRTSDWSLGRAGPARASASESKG
In words: β-blocking effect: antagonism of increase of beat rate of right atrium of guinea pig caused by isoproterenol. Type of data set: cell-based. Here is the method:
This was evaluated in terms of the effect antagonizing an increase of beat rate of a right artrium of guinea pig caused by isoproterenol. Efficiency of blocking by the corresponding compound is expressed in pA2 value (see Van Bossum, Arch. int. Pharmacodyn. Ther. 143, 299, 1963).

Data set [2] concerns spontaneously hypertensive rats. Nature of the data set: Antihypertensive effect on the spontaneously hypertensive rats. Type of data set: in vivo, rat. The note with it: 30 mg/kg, single oral administration, SHR, average blood pressure by aortic cannula. Here is the method:
Antihypertensive effect on the spontaneously hypertensive rats Five spontaneous rats (SHR), showing more than […] of systolic blood pressure were used. After a single oral administration, antihypertensive activity of the corresponding compound was evaluated in terms of a decrease in average blood pressure measured by means of a cannula embedded in the aorta.

Data set [3] is described as follows: Acute toxicity of active compounds (LD50). The note with it: in vivo. An excerpt: Beta-blocking agents hitherto known have to be given to hypertensive patients for some period before desirable effects are obtained.
Another data set concerns heart rate. In words: Influence on the heart rate in unanaesthetized dogs. The note with it: 10 mg/kg oral. Type of data set: in vivo, dog. Here is the method:
4. Influence on the heart rate This was measured in dogs under unanaesthesized condition after oral administration of the corresponding compound.

For data set [4] the following is noted: clinical use; cited from earlier work.
Where [5] appears, read: pA2 vs phenylephrine, rat aorta, read-out: α-Blocking effect (pA2) (converted).
Where [6] appears, read: pA2 vs isoproterenol, guinea pig right atrium, read-out: β-Blocking effect (pA2) (converted).

Structures are written as SMILES. Read-outs that look alike come from different tables or passages of the source.

For the compound `CC(COc1ccccc1)NCC(O)COc1c[nH]c(=O)c2ccccc12.Cl` (centres unmarked) [4-[3-(1-methyl-2-phenoxyethyl-amino)-2-hydroxypropoxy]isocarbostyril hydrochloride], the Kb was 26.9 nM on aorta of rat (setting [5]) and 13.2 nM in data set [1] (setting [6]). Further, the “Antihypertensive effect: decrease in blood pressure” value (from here on “Antihypertensive effect: decrease”) in data set [2] is 15 mm Hg.
Take `CC(COc1ccc([N+](=O)[O-])cc1)NCC(O)COc1c[nH]c(=O)c2ccccc12.Cl` (centres unmarked) [4-[3-{1-methyl-2-(4-nitrophenoxy)ethylamino}-2-hydroxypropoxy]isocarbostyril hydrochloride]: in data set [1] (setting [6]), the Kb was 37.2 nM. Besides, the “Antihypertensive effect: decrease” value in data set [2] was found to be 17 mm Hg.
What is called LD50 is the dose expected to kill half of the subjects tested. As for `COc1ccc(OCC(C)NCC(O)COc2c[nH]c(=O)c3ccccc23)c(OC)c1.Cl` (centres unmarked) [4-[3-{2-(2,4-dimethoxyphenoxy)-1-methylethylamino}-2-hydroxypropoxy]isocarbostyril hydrochloride], the LD50 in data set [3] (iv, I.V., read-out: LD50 I.V.) was 118 mg/kg; in data set [3] (po, P.O., read-out: LD50 P.O.), more than 2000 mg/kg. Besides, the results for the Kb (at aorta of rat (setting [5]); in data set [1] (setting [6])) were 63.1 nM and 5.5 nM, respectively. For the same compound, the “Antihypertensive effect: decrease” value in data set [2] is listed as 32 mm Hg.
Take `CC(COc1ccccc1C(N)=O)NCC(O)COc1c[nH]c(=O)c2ccccc12` (centres unmarked) [4-[3-{2-(2-carbamoylphenoxy)-1-methylethylamino}-2-hydroxypropy]isocarbostyril]: the Kb in data set [1] (setting [6]) was 14.8 nM. For the same compound, in data set [2], the “Antihypertensive effect: decrease” value stood at 10 mm Hg.
Regarding `COc1ccccc1OCC(C)NCC(O)COc1c[nH]c(=O)c2ccccc12.Cl` (centres unmarked) [4-[3-{2-(2-methoxyphenoxy)-1-methylethylamino}-2-hydroxypropoxy]isocarbostyril hydrochloride], the Kb at aorta of rat (setting [5]) is 19.5 nM; in data set [1] (setting [6]) it was 10.7 nM. For the same compound, the “Antihypertensive effect: decrease” value in data set [2] turned out to be 35 mm Hg.
For `CC(COc1ccc(N)cc1)NCC(O)COc1c[nH]c(=O)c2ccccc12.Cl` (centres unmarked) [4-[3-{2-(4-aminophenoxy)-1-methylethylamino}-2-hydroxypropoxy]isocarbostyril hydrochloride], the Kb in data set [1] (setting [6]) is 7.24 nM. In data set [2], the “Antihypertensive effect: decrease” value is given as 31 mm Hg.
Turning to `CC(COc1ccc(N)cc1)NCC(O)COc1c[nH]c(=O)c2ccccc12` (centres unmarked) [4-[3-{2-(4-aminophenoxy)-1-methylethylamino}-2-hydroxypropoxy]isocarbostyril], the LD50 is 77.4 mg/kg in data set [3] (iv, I.V., read-out: LD50 I.V.) and more than 2000 mg/kg in data set [3] (po, P.O., read-out: LD50 P.O.).
As for `CC(COc1ccc(O)cc1)NCC(O)COc1c[nH]c(=O)c2ccccc12` (centres unmarked) [4-[3-{2-(4-hydroxyphenoxy)-1-methylethylamino{-2-hydroxy-propoxy]isocarbostyril], the LD50 in data set [3] (iv, I.V., read-out: LD50 I.V.) was 163 mg/kg; in data set [3] (po, P.O., read-out: LD50 P.O.), more than 2000 mg/kg. Further, the Kb is 102 nM on aorta of rat (setting [5]) and 2.95 nM in data set [1] (setting [6]). Moreover, the “Antihypertensive effect: decrease” value in data set [2] worked out at 26 mm Hg.
`COc1ccc(OCC(C)NCC(O)COc2c[nH]c(=O)c3ccccc23)cc1.Cl` (centres unmarked) [4-[3-{2-(4-methoxyphenoxy)-1-methylethylamino}-2-hydroxypropoxy]isocarbostyril hydrochloride]: the LD50 in data set [3] (iv, I.V., read-out: LD50 I.V.) was 137 mg/kg; in data set [3] (po, P.O., read-out: LD50 P.O.) it was more than 2000 mg/kg. The Kb in data set [1] (setting [6]) was 9.55 nM. Besides, in data set [2], the “Antihypertensive effect: decrease” value was 21 mm Hg.
On to `CC(CCc1ccccc1)NCC(O)c1ccc(O)c(C(N)=O)c1` (centres unmarked) [Labetalol, reference compound], for which the Kb at aorta of rat was 41.7 nM; in data set [1] it was 38 nM. In addition, in data set [2], the “Antihypertensive effect: decrease” value turned out to be 31 mm Hg. For the same compound, the “Influence on heart rate: change” value in the data set with heart rate is given as “Increase”. In addition, the “orthostatic hypotension (in words)” value in data set [4] is on record as “serious adverse reaction”.
Regarding `CC(C)NCC(O)COc1cccc2ccccc12` (centres unmarked) [Propranolol, reference compound], in data set [2], the “Antihypertensive effect: decrease” value was found to be 3 mm Hg. Moreover, in the data set on heart rate, the “Influence on heart rate: change” value was “Decrease”.
